Laboratory results taken from patent US9051310B2, “Nicotinamide derivative or salt thereof” (FUJIFILM Corporation, priority 2011, dated 2015).

Columns and labels:
[1] = molecular target: T1, glutathione S-transferase (GST)-linked full-length human Syk protein (Homo sapiens, UniProt P43405); experiment: Syk enzyme assay; format: biochemical; details: 0.83 nM Syk, time-resolved fluorescence; read-out: IC50 of Syk-inhibitory activity
T1 construct: glutathione S-transferase (GST)-linked full-length human Syk protein; purchased Carna Biosciences; host or cells: Baculovirus expression system
In short: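 Phosphotyrosine on a biotin-peptide substrate (0.5 μM) was read by time-resolved fluorescence at 615 and 665 nm with Eu-anti-pTyr antibody and APC-streptavidin after 1 h EDTA stop.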

[2] = system: THP-1 cells (TNFα secretion on human IgG-coated plate); experiment: TNFα generation assay; format: cell-based; details: IFN-γ differentiated THP-1 cells, 7 hours, AlphaLISA, read-out: IC50 of TNFα generation inhibitory activity
In short: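 THP-1 cells were differentiated with 10 ng/ml IFN-γ for 2 days, then preincubated with compound for 30 min at room temperature. They were then plated at 5×10^4 cells/well on plates coated with human IgG (10 μg/ml). TNFα secreted over 7 h of culture was quantified by AlphaLISA.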

[3] = system: THP-1 cells (phagocytosis of opsonized Escherichia coli); experiment: Antibody-dependent phagocytosis assay; format: cell-based; details: Homo sapiens; IFNγ differentiated THP-1 cells, opsonized pHrodo Escherichia coli, 3 hours; read-out: IC50 upon phagocytosis inhibition
Method: THP-1 cells (2×10^5 cells/ml), which were human monocytoid cells, were cultured in the presence of 10 ng/ml IFNγ for 2 days, and they were induced to differentiate into macrophage-like cells. The differentiation-induced THP-1 cells were recovered, and the cells (5×10^4 cells/well) were then allowed to react with a predetermined concentration of test compound at room temperature for 30 minutes. Thereafter, Escherichia coli (Life Technologies) labeled with a pH-sensitive dye (pHrodo) was subjected to opsonization using an anti-Escherichia coli antibody (Life Technologies). Then, the resultant was added to the THP-1 cells obtained above, followed by incubation at 37° C. for 3 hours. Opsonized Escherichia coli and cell-permeable fluorescent dye (Calcein AM) were simultaneously added thereto, followed by quantitative determination of phagocytosis of opsonized Escherichia coli in viable cells using an IN Cell Analyzer.

| SMILES | IC50 [1] [µM] | IC50 [2] [µM] | IC50 [3] [µM] |
| --- | --- | --- | --- |
| CC[C@@H](Nc1nc(Nc2cnc(C)c(C)c2)c(C(N)=O)cc1F)[C@H](C)N [Example 2-17, 6-(((2S,3R)-2-aminopentan-3-yl)amino)-2-((5,6-dimethylpyridin-3-yl)amino)-5-fluoronicotinamide] | < 0.01 | 0.065 to 0.13 | < 1 |
| C[C@H](N)[C@@H](CC1CC1)Nc1nc(Nc2cccc3c2cnn3CC(F)F)c(C(N)=O)cc1F [Example 2-21, 6-(((2R,3S)-3-amino-1-cyclopropylbutan-2-yl)amino)-2-((1-(2,2-difluoroethyl)-1H-indazol-4-yl)amino)-5-fluoronicotinamide] | < 0.01 | 0.13 to 0.2 | < 1 |
| CC(C)C[C@@H](Nc1nc(Nc2cccc3c2cnn3CC(F)F)c(C(N)=O)cc1F)[C@H](C)N [Example 2-22, 6-(((2S,3R)-2-amino-5-methylhexan-3-yl)amino)-2-((1-(2,2-difluoroethyl)-1H-indazol-4-yl)amino)-5-fluoronicotinamide] | < 0.01 | 0.13 to 0.2 | < 1 |
| CC[C@@H](Nc1nc(Nc2cccc3c2cnn3CC(F)F)c(C(N)=O)cc1F)[C@H](C)N [Example 2-23, 6-(((2S,3R)-2-aminopentan-3-yl)amino)-2-((1-(2,2-difluoroethyl)-1H-indazol-4-yl)amino)-5-fluoronicotinamide] | < 0.01 | 0.065 to 0.13 | < 1 |
| CC[C@@H](Nc1nc(Nc2cnc(C)c(-n3nccn3)c2)c(C(N)=O)cc1F)[C@H](C)N [Example 2-31, 6-(((2S,3R)-2-aminopentan-3-yl)amino)-5-fluoro-2-((6-methyl-5-(2H-1,2,3-triazol-2-yl)pyridin-3-yl)amino)nicotinamide] | < 0.01 | 0.065 to 0.13 | < 1 |
| CC[C@H](N)[C@@H](CC)Nc1nc(Nc2cnc(C)c(C)c2)c(C(N)=O)cc1F [Example 2-36, 6-(((3R,4S)-4-aminohexan-3-yl)amino) 2-((5,6-dimethylpyridin-3-yl)amino)-5-fluoronicotinamide] | 0.01 to 0.05 | 0.13 to 0.2 | 1 to 3 |
| CC[C@H](N)[C@@H](C)Nc1nc(Nc2ccc3c(cnn3C)c2)c(C(N)=O)cc1F [Example 2-40, 6-(((2R,3S)-3-aminopentan-2-yl)amino)-5-fluoro-2-((1-methyl-1H-indazol-5-yl)amino)nicotinamide] | < 0.01 | < 0.065 | < 1 |
| Cc1cccc(Nc2nc(N[C@H](C3CC3)[C@H](C)N)c(F)cc2C(N)=O)c1 [Example 2-44, 6-(((1R,2S)-2-amino-1-cyclopropylpropyl)amino)-5-fluoro-2-(m-tolylamino)nicotinamide] | < 0.01 | 0.065 to 0.13 | < 1 |
| CCn1nc(OC)c2cc(Nc3nc(N[C@H](CC(C)C)[C@H](C)N)c(F)cc3C(N)=O)ccc21 [Example 2-51, 6-(((2S,3R)-2-amino-5-methylhexan-3-yl)amino)-2-((1-ethyl-3-methoxy-1H-indazol-5-yl)amino)-5-fluoronicotinamide] | < 0.01 | 0.13 to 0.2 | < 1 |
| CC[C@@H](Nc1nc(Nc2ccc3c(c2)c(OC)nn3CC)c(C(N)=O)cc1F)[C@H](C)N [Example 2-52, 6-(((2S,3R)-2-aminopentan-3-yl)amino)-2-((1-ethyl-3-methoxy-1H-indazol-5-yl)amino)-5-fluoronicotinamide] | < 0.01 | 0.13 to 0.2 | < 1 |
| COc1ncc(Nc2nc(N[C@H](CC(C)C)[C@H](C)N)c(F)cc2C(N)=O)cc1F [Example 2-66, 6-(((2S,3R)-2-amino-5-methylhexan-3-yl)amino)-5-fluoro-2-((5-fluoro-6-methoxypyridin-3-yl)amino)nicotinamide] | 0.01 to 0.05 | 0.13 to 0.2 | < 1 |
| CC(C)C[C@@H](Nc1nc(Nc2cncc(-n3cccn3)c2)c(C(N)=O)cc1F)[C@H](C)N [Example 2-70, 2-((5-(1H-pyrazol-1-yl)pyridin-3-yl)amino)-6-(((2S,3R)-2-amino-5-methylhexan-3-yl)amino)-5-fluoronicotinamide] | < 0.01 | 0.13 to 0.2 | 1 to 3 |
| COc1nn(CC(F)F)c2ccc(Nc3nc(N[C@H](C4CC4)[C@H](C)N)c(F)cc3C(N)=O)cc12 [Example 2-74, 6-(((1R,2S)-2-amino-1-cyclopropylpropyl)amino)-2-((1-(2,2-difluoroethyl)-3-methoxy-1H-indazol-5-yl)amino)-5-fluoronicotinamide] | < 0.01 | 0.065 to 0.13 | < 1 |
| CCC[C@@H](Nc1nc(Nc2cccc3c2cnn3CC)c(C(N)=O)cc1F)[C@H](C)N [Example 2-96, 6-(((2S,3R)-2-aminohexan-3-yl)amino)-2-((1-ethyl-1H-indazol-4-yl)amino)-5-fluoronicotinamide] | < 0.01 | 0.13 to 0.2 | < 1 |
| CCn1ncc2c(Nc3nc(N[C@H](C4CCC4)[C@H](C)N)c(F)cc3C(N)=O)cccc21 [Example 2-98, 6-(((1R,2S)-2-amino-1-cyclobutylpropyl)amino)-2-((1-ethyl-1H-indazol-4-yl)amino)-5-fluoronicotinamide] | < 0.01 | 0.13 to 0.2 | < 1 |
| COc1ncc(Nc2nc(N[C@H](C3CCC3)[C@H](C)N)c(F)cc2C(N)=O)cc1-n1nccn1 [Example 2-114, 6-(((1R,2S)-2-amino-1-cyclobutylpropyl)amino)-5-fluoro-2-((6-methoxy-5-(2H-1,2,3-triazol-2-yl)pyridin-3-yl)amino)nicotinamide] | < 0.01 | 0.13 to 0.2 | 1 to 3 |
| COC[C@@H](Nc1nc(Nc2ccc3c(c2)c(OC)nn3C)c(C(N)=O)cc1F)[C@H](C)N [Example 2-121, 6-(((2S,3S)-3-amino-1-methoxybutan-2-yl)amino)-5-fluoro-2-((3-methoxy-1-methyl-1H-indazol-5-yl)amino)nicotinamide] | < 0.01 | 0.13 to 0.2 | 1 to 3 |
| CCC[C@@H](Nc1nc(Nc2ccc3c(c2)c(OC)nn3CCOC)c(C(N)=O)cc1F)[C@H](C)N [Example 2-126, 6-(((2S,3R)-2-aminohexan-3-yl)amino)-5-fluoro-2-((3-methoxy-1-(2-methoxyethyl)-1H-indazol-5-yl)amino)nicotinamide] | < 0.01 | 0.065 to 0.13 | < 1 |
| COCCn1nc(OC)c2cc(Nc3nc(N[C@H](CC(C)C)[C@H](C)N)c(F)cc3C(N)=O)ccc21 [Example 2-127, 6-(((2S,3R)-2-amino-5-methylhexan-3-yl)amino)-5-fluoro-2-((3-methoxy-1-(2-methoxyethyl)-1H-indazol-5-yl)amino)nicotinamide] | < 0.01 | 0.13 to 0.2 | < 1 |
| COCCn1nc(C)c2cc(Nc3nc(N[C@H](COC)[C@H](C)N)c(F)cc3C(N)=O)ccc21 [Example 2-135, 6-(((2S,3S)-3-amino-1-methoxybutan-2-yl)amino)-5-fluoro-2-((1-(2-methoxyethyl)-3-methyl-1H-indazol-5-yl)amino)nicotinamide] | 0.01 to 0.05 | 0.13 to 0.2 | 1 to 3 |
